Data set [1] relates to DU145 cells. Description: Annexin V-FITC/PI apoptosis flow cytometry. It counts as cell-based, human. The settings on record: 2-DG alone (2 mM) compared with PBS control. The protocol:
DU145 cells were seeded (3 × 10^5 cells/mL) into 6-well plates and treated with buforin IIb (2 μM) and 2-DG (2 mM) alone and in combination for 24 h. After collecting and washing with PBS, the cells were re-suspended in 500 μL of binding buffer, stained with FITC-conjugated Annexin V and PI, and incubated on ice in the dark for 10 min. The stained cells were analyzed by flow cytometry, and the percentage of apoptotic cells was calculated using Cell Quest software.

For data set [2], the system named is DU145 cells. Description: Cell cycle analysis (PI staining, FACS). It counts as cell-based, human. Particulars: 2-DG 2 mM, buforin IIb 2 μM, alone or in combination, 24 h. How it is done: Cell cycle analysis was performed using the Cell Cycle Analysis Kit. Briefly, cells were seeded into 6-well culture plates at a density of 3 × 10^5 cells/mL. After treatment with 2-DG (2 mM) and buforin IIb (2 μM) alone or in combination for 24 h, cells were digested by 0.25% trypsin without EDTA, fixed in 70% cold ethanol for 5 h at 4 °C, and then stained with propidium iodide (PI) and RNase A solution for 30 min at 37 °C in the dark. The cell distribution across the cell cycle was analyzed with a FACS Vantage SE flow cytometer.

In data set [3] the test system is normal prostatic epithelial WPMY-1 cell line. Kind of data set: CCK-8 cell viability assay, WPMY-1. It counts as cell-based. How it is done:
(§1) Cells were seeded in 96-well plates at a density of 1 × 10^5 cells/mL in medium, and then treated with different concentrations of buforin IIb and 2-DG alone or in combination for 24 h. After treatment, 10 μL CCK-8 was added to each well, and the plates were incubated in the dark at 37 °C for 2 h. Absorbance at 450 nm was measured using a […]1 multifunction microplate reader. Each experiment was performed in triplicate, and cell viability was expressed as a percentage of the control. The drug-drug interactions between buforin IIb and 2-DG were evaluated using the combination index (CI) described by Chou and Talalay, and calculated using Compusyn software (Biosoft). CI values < 1, = 1 or > 1 indicated synergy, additivity, or antagonism, respectively.

The test system of data set [4] is prostate cancer cell line DU145. The settings on record: 1 mM 2-DG alone; ref 28 (Sahra et al. 2010); cited from earlier work. The text has this:
Glycolysis inhibitors have been studied extensively in recent years as a group of compounds with a potential anticancer activity. This is associated with increasing knowledge of metabolic disorders in cancer cells. One difference between cancer cells and normal cells is that the metabolism of cancer cells is reprogrammed to generate energy from aerobic glycolysis instead of oxidative phosphorylation, which affects mitochondrial function. One effective anticancer strategy is to combine mitochondrial and antiglycolytic drugs with different molecular targets, which may elicit synergistic e ...

Data set [5] concerns Bcl-2, Bak, Bax, cytochrome c, caspase 3 in DU145 cells. Description: Western blot of apoptosis-related proteins. In kind it is cell-based, human. Particulars: 2 mM 2-DG 12 h and/or 2 μM buforin IIb 12 h. The protocol: DU145 cells were treated with 2-DG (2 mM) for 12 h, then treated with or without buforin IIb (2 μM) for 12 h. The cells were lysed on ice for 30 min in RIPA lysis buffer, and the lysates were centrifuged at 12,000× g for 10 min at 4 °C. The supernatant was collected, separated by 12% sodium dodecyl sulfate-polyacrylamide gel electrophoresis (SDS-PAGE), and transferred onto a polyvinylidene difluoride (PVDF) membrane. After blocking with 5% skim milk in PBS, the PVDF membrane incubated with primary antibodies against Bcl-2, Bak, Bax, cytochrome C, caspase 3, and β-actin overnight at 4 °C, followed by incubating with appropriate secondary antibodies. After washing, bands were visualized by using ECL detection system according to the manufacturer’s instructions.
A general note: In western blotting, separated proteins are transferred to a membrane and probed.

The next data set deals with mouse erythrocytes. Kind of data set: Hemolytic activity assay. It counts as cell-based. Particulars: mouse RBCs 4% (v/v), 30 min, 37 °C, absorbance 570 nm; different concentrations. The protocol: The hemolytic assay was conducted using mouse red blood cells (RBCs) as the method described previously. Briefly, erythrocytes were isolated by centrifugation at 1000× g for 10 min, washed three times with PBS, and resuspended at a final concentration of 4% (v/v). After incubating cells with 2-DG and buforin IIb alone or in combination at different concentrations for 30 min at 37 °C, the mixture was centrifuged at 1000× g for 5 min to obtain the supernatant. A volume of 100 μL of supernatant was removed to a new 96-well plate and the absorbance was measured at 570 nm. PBS and 0.1% Triton X-100 were used as agents for 0 and 100% hemolysis, respectively. The percentage of hemolysis was calculated as follows: (Asample − APBS)/(ATritonX-100 − APBS) × 100%, where A is the absorbance. Data are presented as the mean ± standard error of the mean (SEM) of at 4–6 independent experiments.

Data set [6] deals with DU145 cells. Kind of data set: EdU incorporation assay (cell proliferation). In kind it is cell-based, human. Particulars: Homo sapiens, DU-145, 2-DG 2 mM, buforin IIb 2 μM, alone or in combination, 24 h, read-out: inhibition of cell proliferation (rate). How it is done: Cultured cells were plated in 12-well plates at a density of 2 × 10^5 cells/mL and treated with buforin IIb (2 μM) and 2-DG (2 mM) alone and in combination for 24 h. Cells were then incubated with in medium containing EdU (10 μM) for 2 h, fixed with 4% paraformaldehyde for 15 min, and permeabilized with 0.2% Triton X-100 for 15 min. Cells were then incubated with EdU staining cocktail at room temperature in the dark for 30 min. After washing with PBS, cell nuclei were stained with DAPI at a concentration of 10 μg/mL for 15 min. More than five images of each well were acquired by fluorescence microscope, and the percentage of EdU-positive cells was evaluated.

The test system of data set [7] is prostate cancer cell line DU145. Description: CCK-8 cell viability assay, DU145. In kind it is cell-based, human. The protocol:
as §1
In general terms: Formazan colour is commonly taken as a measure of viable cells.

Each structure is given as a SMILES string. Entries after “also recorded” stand apart in the source; their conditions may differ.

In general, IC50 refers to the concentration needed to halve the response being measured.

Turning to `O=CC[C@@H](O)[C@H](O)[C@H](O)CO` [2-DG, 2-Deoxy-D-glucose], the “induction of apoptosis” value in the data set with DU145 cells [1] is on record as “did not induce DU145 cell apoptosis”. For the same compound, the “%G2” value with DU145 cells [2] (PBS 8.15) is on record as 7.2%. Further, the “%S” value in the data set on DU145 cells [2] (PBS 38.08) is 28.05%. For the same compound, the S/G2 population in the data set with DU145 cells [2] (PBS control 46.23%) is on record as 35.25%. In the data set with DU145 cells [2] (PBS control 53.7%), the “G0/G1 population (%G1)” value is recorded as 64.76%. Moreover, the “cytotoxicity against WPMY-1 cells” value in data set [3] (2 mM 2-DG and 2 μM buforin IIb alone or in combination) is on record as “no significant cytotoxicity”. Besides, the “inhibition of viability of WPMY-1 cells” value in data set [3] (4 mM 2-DG and 4 μM buforin IIb alone or in combination) is reported as “No significant inhibition of viability”. Moreover, in data set [3] (all tested concentrations), the “effect on viability of WPMY-1 cells” value is recorded as “no effect on the viability”. For the same compound, in data set [4], the “effect on cell viability and apoptosis in DU145 cells” value is “almost no effect on cell viability and apoptosis”. Moreover, in data set [5], the “Bcl-2 family protein levels” value is “downregulated Bcl-2 and upregulated Bak”; the “cytochrome c and caspase 3” value is “did not promote the release of cytochrome c from mitochondria or activate caspase 3”. Further, the “hemolytic activity” value in the data set with mouse erythrocytes was “no hemolytic activity”. In addition, the inhibition at 2000 µM in the data set with DU145 cells [6] stood at 14%. The “effect on DU145 cell viability / growth” value in data set [7] (2 mM 2-DG alone) was “did not inhibit DU145 cell growth significantly; also recorded: no significant effect on cell viability and apoptosis”. Moreover, in data set [7] (Homo sapiens, DU-145, CCK8 assay, 24 h, data not shown), the IC50 came to 12 mM.

Values taken from publication PMC7730206, “2-Deoxy-D-glucose Promotes Buforin IIb-Induced Cytotoxicity in Prostate Cancer DU145 Cells and Xenograft Tumors” (Molecules, 2020).
